Several values for one entry are separate records, joined by “and”; a condition that tells them apart may be missing. Identical values can stand only once.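 Values below derive from 48-hour exposures of cells grown in 96-well plates, with endpoints linearly interpolated between the two concentrations bracketing the appropriate inhibition level. The concentration for 50% growth inhibition is given as GI50. Definition used: TGI = concentration required for complete inhibition of growth.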
Key:
Assay in all cases: NCI-60 cell line screen, 48 h
COLO 205 colon = tested on: COLO 205 colon
M14 melanoma = tested on: M14 melanoma
OVCAR-4 ovarian = tested on: OVCAR-4 ovarian
PC-3 prostate = tested on: PC-3 prostate
SF-268 CNS = tested on: SF-268 CNS
SK-MEL-28 melanoma = tested on: SK-MEL-28 melanoma
SK-MEL-5 melanoma = tested on: SK-MEL-5 melanoma
SK-OV-3 ovarian = tested on: SK-OV-3 ovarian
SNB-19 CNS = tested on: SNB-19 CNS
UACC-257 melanoma = tested on: UACC-257 melanoma

| Compound | GI50 (COLO 205 colon) | TGI (COLO 205 colon) [µM] | GI50 (M14 melanoma) [µM] | TGI (M14 melanoma) [µM] | GI50 (OVCAR-4 ovarian) | TGI (OVCAR-4 ovarian) [µM] | GI50 (PC-3 prostate) [µM] | TGI (PC-3 prostate) [µM] | GI50 (SF-268 CNS) | TGI (SF-268 CNS) [µM] | GI50 (SK-MEL-28 melanoma) | TGI (SK-MEL-28 melanoma) [µM] | GI50 (SK-MEL-5 melanoma) | TGI (SK-MEL-5 melanoma) [µM] | GI50 (SK-OV-3 ovarian) [µM] | TGI (SK-OV-3 ovarian) [µM] | GI50 (SNB-19 CNS) | TGI (SNB-19 CNS) [µM] | GI50 (UACC-257 melanoma) [µM] | TGI (UACC-257 melanoma) [µM] |
| --- | --- | --- | --- | --- | --- | --- | --- | --- | --- | --- | --- | --- | --- | --- | --- | --- | --- | --- | --- | --- |
| C=C(C)[C@@H]1CC[C@]2(C)[C@H](CC=C3[C@@H]4[C@@H](C)[C@H](C)CC[C@]4(C(N)=O)CC[C@]32C)[C@@]1(C)CCC#N | 4.01 µM | 15.6 | 4.08 | 23.6 | 3.74 µM | > 100 | 2.58 | 21 | 4.52 µM | > 100 | 7.57 µM | 22.7 | 2.71 µM | 8.16 | 7.31 | > 100 | 6.31 µM | > 100 | 5.39 | 76.5 |
| COc1cc(/C=N/NC(=O)c2cnn3c2NC(c2ccccc2)C3)ccc1Oc1ccccc1 (centres undefined) | 0.819 µM | 6.97 | 0.761 | 10.7 | 1.41 µM | 3.78 | 0.875 | 3.59 | 2.46 µM | 14.6 | 1.38 µM | 6.94 | 0.734 µM | 3.94 | 1.47 | 10.6 | 1.43 µM | 8.31 | 2.91 | 15.6 |
| CCN1C(=O)N(c2ccccc2)C2NC(=S)N(/N=C/C=C/c3ccccc3)C21 (centres undefined) | 0.344 µM | 8.7 | 0.239 | > 100 | 4.68 µM | > 100 | 0.394 | > 100 | 1.02 µM | > 100 | 1.74 µM | > 100 | 0.463 µM | > 100 | 0.421 | > 100 | 0.472 µM | > 100 | 25 | > 100 |
| COc1ccccc1N1CCN(CCc2c[nH]c3cc4c(cc23)OCO4)CC1 | 15.3 µM | 34.7 | 11.3 | 40.7 | 37.7 µM | > 100 | 20 | > 100 | 35.6 µM | > 100 | 43.9 µM | > 100 | 13.2 µM | 26.2 | 81.6 | > 100 | 26 µM | > 100 | 26.5 | 88.9 |
| CC(=O)OCC(=O)[C@@]12OC(C)(C)O[C@@H]1C[C@H]1[C@@H]3CC=C4C[C@@H](O)CC[C@]4(C)[C@H]3CC[C@@]12C |  | > 100 |  | > 100 |  | > 100 |  | > 100 |  | > 100 |  | > 100 |  | > 100 |  | > 100 |  | > 100 |  | > 100 |
| CC(NCCC(=O)N(CCC(=O)N(CCC(=O)N(CCC(=O)N(CCC(=O)N(CCC(=O)N(CCC(=O)N(CCC(=O)N(CCC(=O)N(CCC(=O)O)[C@H](C)c1ccccc1)[C@H](C)c1ccccc1)[C@H](C)c1ccccc1)[C@H](C)c1ccccc1)[C@H](C)c1ccccc1)[C@H](C)c1ccccc1)[C@H](C)c1ccccc1)[C@H](C)c1ccccc1)[C@H](C)c1ccccc1)c1ccccc1 (some centres undefined) | 1.43 µM | 2.83 | 1.77 | 5.49 | 2.48 µM | > 68.7 | 2.66 | > 75 | 2.45 µM | > 38.7 | 1.5 µM | 3.63 | 1.16 µM | 2.36 | 10.6 | > 53 | > 19.1 µM | > 75 | 1.76 | 4.15 |
| O=C(c1ccccc1)C(Br)C(Br)c1cccc([N+](=O)[O-])c1 (centres undefined) | 1.86 µM | 3.46 | 1.78 | 3.17 | 1.49 µM | 2.81 | 2.26 | 6.84 | 2.47 µM | 6.77 | 1.87 µM | 3.64 | 2.89 µM | 10.8 | 11 | 22.9 | 3.32 µM | 12.9 | 1.8 | 3.89 |
| CCC[CH2][Sn]([CH2]CCC)([CH2]CCC)[O]C(=O)c1ccc(Cl)cc1Cl | 0.183 µM | 0.375 | 0.147 | 0.29 | 0.0958 µM | 0.226 | 0.202 | 0.471 | 0.134 µM | 0.283 | 0.159 µM | 0.302 | 0.143 µM | 0.276 | 0.142 | 0.279 | 0.179 µM | 0.359 | 0.155 | 0.313 |
| COC(=O)C1=C(C(=O)OC)SC(=C(Cl)C(=S)Nc2ccccc2O)S1 | 16.2 µM | > 50 | 0.352 | 12.7 | 35.5 µM | > 50 | 22.2 | > 50 | 10.2 µM | 23.6 | > 50 µM | > 50 | 19.1 µM | > 50 | 20 | > 50 | 18 µM | > 50 | 12.4 | 26.3 |
| CN(C)CC1C(=O)O[C@H]2[C@H]1CC/C(COC(=O)c1cc3ccccc3[nH]1)=C\CC[C@@]1(C)O[C@@H]21 (some centres undefined) | 2.16 µM | 5.5 | 1.76 | 4.29 | 1.57 µM | 3.68 | 2.14 | 5.86 | 1.65 µM | 3.43 | 2.17 µM | 5.24 | 1.84 µM | 3.57 | 19.9 | 39.3 | 11.4 µM | 25.9 | 1.47 | 3.24 |
| CC(C)COCC(CN(Cc1ccccc1)c1ccccc1)N1CCCC1 (centres undefined) | 1.53 µM | 3.52 | 2.3 | 5.76 | 2.04 µM | 11 | 3.04 | 13.9 | 4.01 µM | 16.1 | 3.48 µM | 13.8 | 1.65 µM | 3.01 | 3.17 | 13.6 | 3.07 µM | 12.2 | 3.28 | 15.3 |
| COc1cccc(OCCCN)c1-c1cc(Nc2cnc(C#N)cn2)n[nH]1 | 0.0419 µM and 0.0677 µM | 11.2 | 0.00276 | 0.0135 | 0.00793 µM and < 0.0249 µM | 14.9 | 2.41 | 21.5 | 0.0871 µM and 0.0754 µM | 13.2 | 0.955 µM and 3.11 µM | 17.4 | 0.0318 µM and 0.0224 µM | 1.59 | 0.00474 | 7.02 | 0.0188 µM and 0.0256 µM | 19.5 | 0.142 | 13.1 |
| O=C1C2C(c3ccccc3)NC(c3ccccc3)C1C(c1ccccc1)NC2c1ccccc1 (centres undefined) |  | > 100 |  | > 100 |  | > 100 |  | > 100 |  | > 100 |  | > 100 |  | > 100 |  | > 100 |  | > 100 |  | > 100 |
| Cc1cc2[nH]c(=O)c3c4ccccc4cn3c2cc1C | 15.2 µM | 40 | 13.6 | 26.9 | 13.5 µM | 27.6 | 12 | 25.4 | 15.3 µM | 32.4 | 14.8 µM | 35.1 | 13.6 µM | 29.6 | 18.4 | 34.5 | 16.3 µM | 36.7 | 20.2 | 35.9 |
| CNCCNc1c2c(c(NCCNC)c3[nH]ccc13)C(=O)c1ccccc1C2=O | 3.32 µM |  | 0.27 | 1.35 | 1.66 µM | 5.11 | 0.0593 | 0.309 | 0.222 µM | 0.876 | 4.18 µM | 11.1 | 0.421 µM | 0.901 | 5.67 | 13.3 | 4.58 µM | 11.5 | 1.72 | 7.04 |
| C=C1C(=O)O[C@H]2[C@H]1CCC(/C=N/c1ncc(Br)cc1N)=C\CC[C@@]1(C)O[C@@H]21 | 1.65 µM | 3.59 | 1.89 | 5.36 | 2.43 µM | 11.6 | 2.26 | 11.1 | 2.86 µM | 11.1 | 2.37 µM | 6.07 | 1.55 µM | 3.01 | 16.3 | 95.2 | 10.1 µM | 24.7 | 1.8 | 4.45 |
| COc1cc(Cl)cc(-c2nn(-c3cccc(NC(=O)Nc4cc(C(F)(F)F)cc(C(F)(F)F)c4)c3)cc2-c2ccncc2)c1 | 0.528 µM | 1.97 | 0.481 | 2.3 | 0.581 µM | 17.5 | 0.311 | 1.62 | 0.645 µM | 4.35 | 1.07 µM | 4.83 | 1.09 µM | 2.33 | 1.22 | 6.68 | 0.612 µM | 12.7 | 0.686 | 2.68 |

Reference: PubChem BioAssay (NCI)
